Experiments:
[1] = target: T1, Serine/threonine-protein kinase TNNI3K (Homo sapiens, UniProt Q59H18)
T1 sequence (Q59H18 whole entry): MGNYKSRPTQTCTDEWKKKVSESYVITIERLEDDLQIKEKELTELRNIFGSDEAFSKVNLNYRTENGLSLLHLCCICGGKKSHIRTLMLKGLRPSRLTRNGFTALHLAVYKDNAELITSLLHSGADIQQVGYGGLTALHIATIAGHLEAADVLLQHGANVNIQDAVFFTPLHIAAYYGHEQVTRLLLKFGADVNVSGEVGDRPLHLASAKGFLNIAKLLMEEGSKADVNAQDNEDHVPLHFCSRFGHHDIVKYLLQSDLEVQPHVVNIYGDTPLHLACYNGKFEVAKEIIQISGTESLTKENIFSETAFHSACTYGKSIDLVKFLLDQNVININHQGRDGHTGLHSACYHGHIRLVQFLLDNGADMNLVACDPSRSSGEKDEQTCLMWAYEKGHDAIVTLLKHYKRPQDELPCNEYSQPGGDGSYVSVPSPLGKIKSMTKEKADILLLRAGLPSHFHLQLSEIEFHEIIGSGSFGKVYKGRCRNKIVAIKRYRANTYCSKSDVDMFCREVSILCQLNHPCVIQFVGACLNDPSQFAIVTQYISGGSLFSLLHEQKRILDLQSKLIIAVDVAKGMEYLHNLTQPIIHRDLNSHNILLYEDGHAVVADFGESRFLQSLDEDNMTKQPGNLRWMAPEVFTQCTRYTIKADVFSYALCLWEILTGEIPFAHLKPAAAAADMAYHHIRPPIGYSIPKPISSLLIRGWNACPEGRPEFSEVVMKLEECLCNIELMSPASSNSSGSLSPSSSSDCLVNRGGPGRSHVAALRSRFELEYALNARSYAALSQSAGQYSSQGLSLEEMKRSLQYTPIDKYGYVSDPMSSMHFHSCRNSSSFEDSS

[2] = target: T2, Mitogen-activated protein kinase kinase kinase 5 (Homo sapiens, UniProt Q99683)
T2 sequence (Q99683 whole entry): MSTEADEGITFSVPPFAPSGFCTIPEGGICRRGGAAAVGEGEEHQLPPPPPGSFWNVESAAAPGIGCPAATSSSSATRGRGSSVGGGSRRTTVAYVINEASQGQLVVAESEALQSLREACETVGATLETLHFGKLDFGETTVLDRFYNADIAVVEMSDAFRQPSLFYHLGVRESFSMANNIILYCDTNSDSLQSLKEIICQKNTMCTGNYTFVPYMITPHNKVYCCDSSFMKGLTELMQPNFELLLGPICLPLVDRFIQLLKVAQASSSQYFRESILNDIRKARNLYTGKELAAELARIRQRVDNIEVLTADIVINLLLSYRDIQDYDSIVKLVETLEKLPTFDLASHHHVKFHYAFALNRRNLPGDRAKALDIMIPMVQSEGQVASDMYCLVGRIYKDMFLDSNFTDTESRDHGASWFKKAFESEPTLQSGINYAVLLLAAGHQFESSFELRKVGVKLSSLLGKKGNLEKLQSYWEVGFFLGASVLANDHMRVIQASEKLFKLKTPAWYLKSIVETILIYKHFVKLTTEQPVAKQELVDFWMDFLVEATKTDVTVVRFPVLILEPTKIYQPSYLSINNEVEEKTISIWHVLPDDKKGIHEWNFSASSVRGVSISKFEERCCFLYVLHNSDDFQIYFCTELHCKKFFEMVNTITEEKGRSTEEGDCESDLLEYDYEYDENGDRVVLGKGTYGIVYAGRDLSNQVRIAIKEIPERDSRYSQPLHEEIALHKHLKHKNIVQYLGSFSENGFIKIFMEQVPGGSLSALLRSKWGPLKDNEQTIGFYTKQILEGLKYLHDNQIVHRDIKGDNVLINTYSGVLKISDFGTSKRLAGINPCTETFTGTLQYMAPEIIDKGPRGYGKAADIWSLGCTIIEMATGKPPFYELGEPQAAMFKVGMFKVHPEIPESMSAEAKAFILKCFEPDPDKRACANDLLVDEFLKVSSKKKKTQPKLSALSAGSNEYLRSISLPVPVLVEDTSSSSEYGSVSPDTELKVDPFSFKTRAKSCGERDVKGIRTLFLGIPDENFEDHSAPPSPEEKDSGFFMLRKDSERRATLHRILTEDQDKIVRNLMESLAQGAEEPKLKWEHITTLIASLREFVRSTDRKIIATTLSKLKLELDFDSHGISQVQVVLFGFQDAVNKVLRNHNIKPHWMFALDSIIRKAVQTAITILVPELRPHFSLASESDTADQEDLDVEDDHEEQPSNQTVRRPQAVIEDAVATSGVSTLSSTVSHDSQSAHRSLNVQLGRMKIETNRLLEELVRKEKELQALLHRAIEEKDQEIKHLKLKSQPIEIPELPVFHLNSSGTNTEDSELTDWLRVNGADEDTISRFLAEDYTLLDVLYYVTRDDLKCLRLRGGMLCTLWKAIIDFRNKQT

[3] = target: Ribosomal protein S6 kinase alpha-4 (Homo sapiens, UniProt O75676)
[4] = target: T3, Serine/threonine-protein kinase BRSK2 (Homo sapiens, UniProt Q8IWQ3)
T3 sequence (Q8IWQ3 whole entry): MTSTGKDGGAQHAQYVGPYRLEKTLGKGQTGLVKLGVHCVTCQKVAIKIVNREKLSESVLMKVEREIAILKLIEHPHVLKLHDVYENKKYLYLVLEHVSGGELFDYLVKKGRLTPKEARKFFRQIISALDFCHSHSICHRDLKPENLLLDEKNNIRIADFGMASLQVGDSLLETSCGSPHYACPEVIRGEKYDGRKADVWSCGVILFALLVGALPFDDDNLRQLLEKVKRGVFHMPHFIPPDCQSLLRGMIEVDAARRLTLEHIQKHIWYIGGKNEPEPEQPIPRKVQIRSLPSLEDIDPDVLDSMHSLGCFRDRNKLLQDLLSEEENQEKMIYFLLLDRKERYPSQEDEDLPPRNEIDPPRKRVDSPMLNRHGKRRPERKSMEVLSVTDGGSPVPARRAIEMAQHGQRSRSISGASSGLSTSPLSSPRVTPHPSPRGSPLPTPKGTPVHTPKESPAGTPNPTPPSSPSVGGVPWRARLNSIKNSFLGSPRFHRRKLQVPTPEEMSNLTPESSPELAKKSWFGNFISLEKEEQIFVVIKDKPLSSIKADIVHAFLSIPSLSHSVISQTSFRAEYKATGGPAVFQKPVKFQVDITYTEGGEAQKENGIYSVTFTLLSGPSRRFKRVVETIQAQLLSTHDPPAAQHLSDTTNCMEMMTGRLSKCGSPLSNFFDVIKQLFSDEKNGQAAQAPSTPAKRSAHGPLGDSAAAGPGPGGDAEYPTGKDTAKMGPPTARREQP

[5] = target: Cyclin-dependent kinase 11B (Homo sapiens, UniProt P21127)
[6] = target: Calcium/calmodulin-dependent protein kinase kinase 2 (Homo sapiens, UniProt Q96RR4)

CCOc1cc2ncc(C#N)c(Nc3ccc(F)c(Cl)c3)c2cc1NC(=O)/C=C/CN(C)C [PELITINIB]
Kd [1]: 7.2 µM | Kd [2]: > 10 µM | Kd [3]: > 10 µM | Kd [4]: > 10 µM | Kd [5]: > 10 µM

COCC(=O)NC/C=C/c1ccc2ncnc(Nc3ccc(Oc4ccc(C)nc4)c(C)c3)c2c1 [CP-724714]
Kd [1]: > 10 µM | Kd [6]: > 10 µM | Kd [2]: > 10 µM | Kd [3]: > 10 µM | Kd [4]: > 10 µM | Kd [5]: > 10 µM

NC(=O)c1ccc(-c2nc(-c3ccc4c(c3)OCO4)c(-c3ccccn3)[nH]2)cc1 [SB-431542]
Kd [1]: > 10 µM | Kd [6]: > 10 µM | Kd [2]: > 10 µM | Kd [3]: > 10 µM | Kd [4]: > 10 µM | Kd [5]: > 10 µM

Nc1nc(Nc2ccc(S(N)(=O)=O)cc2)nn1C(=O)c1c(F)cccc1F [JNJ-7706621]
Kd [1]: 1.4 µM | Kd [2]: > 10 µM | Kd [3]: > 10 µM | Kd [4]: 2.7 µM

Oc1ccc(-c2nc(-c3ccncc3)c(-c3ccc(F)cc3)[nH]2)cc1 [SB-202190]
Kd [1]: > 10 µM | Kd [6]: > 10 µM | Kd [2]: > 10 µM | Kd [3]: > 10 µM | Kd [4]: > 10 µM | Kd [5]: > 10 µM

Reference: ChEMBL document CHEMBL1150977, “A quantitative analysis of kinase inhibitor selectivity” (Nat Biotechnol, 2008)
